Data from PMC11876671, “Investigating blood–brain barrier penetration and neurotoxicity of natural products for central nervous system drug development” (Scientific Reports, 2025).
Where a SMILES comes first, the peptide text is derived from it. [ ]: non-standard residue; d: D form. The star is where a group is joined. X2 = CCC(C)(C)NCCN(CCNC(C)(C)/C(C)=N/O)CCN*; Tyr(3-I) = N[C@@H](Cc1ccc(O)c(I)c1)C(=O)O

Test: in vitro
Conditions: PAMPA, PAMPA-BBB Pe

| SMILES | Papp [×10⁻⁶ cm/s] |
| --- | --- |
| C=C(C)[C@@H]1CCC2=CCC[C@@H](C)[C@]2(C)C1 | 18 |
| COc1ccc2[nH]c3c(c2c1)CCNC3C (centres unmarked) [ADRENOGLOMERULOTROPIN] | 23 |

Same assay, conditions: PAMPA, PAMPA-BBB Pe(10^-6 cm/sec)

| SMILES | Papp [×10⁻⁶ cm/s] |
| --- | --- |
| CNc1ccccc1C(=O)O | 1.5 |
| CO[C@@H]1[C@H](O)[C@@H](CO)O[C@H]1n1cnc2c(=O)[nH]c(N)nc21 [2'-O-METHYLGUANOSINE] | < 1 |
| COc1ccc(/C=C/C(=O)O)cc1OC [3,4-DIMETHOXYCINNAMIC ACID] | < 1 |
| Nc1c(O)cccc1C(=O)CC(N)C(=O)O (centres unmarked) [3-HYDROXYKYNURENINE] | < 1 |
| CC(=O)O[C@@]12CO[C@@H]1C[C@H](O)[C@@]1(C)C(=O)[C@H](O)C3=C(C)[C@@H](O)C[C@@](O)([C@@H](OC(=O)c4ccccc4)[C@H]21)C3(C)C [10-DEACETYL BACCATIN III] | < 1 |
| CC(C)C/C=C(\C=O)c1ccccc1 [(Z)-5-METHYL-2-PHENYL-HEX-2-ENAL] | < 1 |
| CC1=C(C)C(=O)C(CC[C@](C)(O)CCC[C@H](C)CCC[C@H](C)CCCC(C)C)=C(C)C1=O [.ALPHA.-TOCOPHERYLQUINONE] | 7.2 |

Same assay, conditions: PAMPA, PAMPA-BBB Pe(10^-6 cm/sec), Table S3: compounds exhibiting low PAMPA-BBB permeability

| SMILES | Papp [×10⁻⁶ cm/s] |
| --- | --- |
| CN(CCCC(=O)c1cccnc1)N=O | < 1 |
| CC1NC(C(=O)O)Cc2c1[nH]c1ccccc21 (centres unmarked) | < 1 |
| CCNc1nc(N)nc(Cl)n1 | 1.1 |
| CC1CC(C)C(=O)C1=O (centres unmarked) | 2.7 |
| NC1C=CC=C(C(=O)O)C1 (centres unmarked) | < 1 |
| O=C/C=C/c1ccccc1 | < 1 |
| C=C/C(C)=C/C/C=C(\C)CCC=C(C)C | < 1 |
| NC(Cc1cc(O)c(O)cc1O)C(=O)O (racemic) [2,4,5-TRIHYDROXY-DL-PHENYLALANINE] | 9.3 |
| O=C(OC[C@H]1O[C@@H](OC(=O)c2cc(O)c(O)c(O)c2)[C@H](OC(=O)c2cc(O)c(O)c(O)c2)[C@@H](OC(=O)c2cc(O)c(O)c(O)c2)[C@@H]1O)c1cc(O)c(O)c(O)c1 [1,2,3,6-TETRA-O-GALLOYL-.BETA.-D-GLUCOSE] | < 1 |
| COC1=C(OC)C(=O)c2ccccc2C1=O [2,3-DIMETHOXYNAPHTHOQUINONE] | 4.7 |
| COC1=CC(=O)C=C(OC)C1=O [2,6-DIMETHOXY-1,4-BENZOQUINONE] | < 1 |
| Nc1nc(Cl)nc2c1ncn2[C@@H]1O[C@H](CO)C(O)[C@H]1O (some centres unmarked) [2-CHLOROADENOSINE] | < 1 |
| O=C(O)c1ccco1 [2-FURANOIC ACID] | < 1 |
| Nc1ccn([C@@H]2O[C@H](CO)[C@@H](OP(=O)(O)O)[C@H]2O)c(=O)n1 [3'-CMP] | < 1 |
| COc1ccc(C(=O)O)cc1OC [3,4-DIMETHOXYBENZOIC ACID] | < 1 |
| O=C(O)/C=C/c1ccc2c(c1)OCO2 [3,4-METHYLENEDIOXYCINNAMIC ACID] | < 1 |
| Cn1cnc(N)c2ncnc1-2 [3-METHYL-6-AMINOPURINE] | < 1 |
| COc1ccc(O[C@@H]2O[C@H](CO)[C@H](O)[C@H](O)[C@H]2O)cc1 [4-METHOXYPHENYL .BETA.-D-GLUCOSIDE] | 1.3 |
| COc1ccc2[nH]cc(CC(=O)O)c2c1 [5-METHOXYIN[…]] | < 1 |
| COc1cc2c(CCNC(C)=O)c[nH]c2cc1O [6-HYDROXYMELATONIN] | 2.8 |
| CC(=O)OCC1=C(C(=O)O)N2C(=O)C(N)C2SC1 (centres unmarked) [7-Aminocephalosporanic acid] | < 1 |
| CN(Cc1nc2c(N)nc(N)nc2nc1O)c1ccc(C(=O)N[C@@H](CCC(=O)O)C(=O)O)cc1 [7-HYDROXYMETHOTREXATE] | < 1 |
| CC1(C)CCC2=C(O1)c1ccccc1C(=O)C2=O [.BETA.-LAPACHONE] | < 1 |
| NC(=O)c1ncn([C@@H]2O[C@H](CO)[C@@H](O)[C@H]2O)c1N [ACADESINE] | < 1 |
| Nc1ncnc2c1ncn2[C@@H]1O[C@H](CO)[C@@H](O)[C@H]1O [ADENOSINE] | < 1 |
| O=C(OCC1=C[C@@H](O)[C@@H]2C=CO[C@@H](O[C@@H]3O[C@H](CO)[C@@H](O)[C@H](O)[C@H]3O)[C@H]12)c1ccc(O)cc1 [AGNUSIDE] | < 1 |
| O=C1c2c(O)cccc2[C@H]([C@@H]2O[C@H](CO)[C@@H](O)[C@H](O)[C@H]2O)c2cc(CO)cc(O)c21 [ALOIN A] | 5.4 |

Same assay, conditions: PAMPA, PAMPA-BBB Pe, Table S2: compounds exhibiting moderate to high PAMPA-BBB permeability

| SMILES | Papp [×10⁻⁶ cm/s] |
| --- | --- |
| O=C(/C=C/c1ccccc1)c1ccc(O)cc1O | 223 |
| CCCOc1ccc2[nH]cc(C3=CCNCC3)c2n1 | 18 |
| O=c1cc(N2CCOCC2)oc2c(-c3cccc4c3sc3ccccc34)cccc12 | 102 |
| COc1ccc(-c2oc3cc(OC)c(OC)c(OC)c3c(=O)c2OC)cc1OC | 120 |
| COc1cccc(C=O)c1OC | 107 |
| CCC(C)(C)NCCN(CCNC(=O)CNC(=O)[C@H](CCCCN)NC(=O)[C@H](CC(C)C)NC(=O)[C@H](CC(C)C)NC(=O)[C@@H](NC(=O)[C@H](Cc1ccc(O)c(I)c1)NC(=O)[C@@H]1CCCN1C(=O)[C@H](CO)NC(=O)[C@@H](NC(=O)[C@H](CCC(N)=O)NC(=O)[C@H](CCC(=O)O)NC(=O)[C@H](CCC(N)=O)NC(=O)[C@H](CC(N)=O)NC(C)=O)C(C)C)[C@@H](C)O)CCNC(C)(C)/C(C)=N/O (Ac-NQEQVSP[Tyr(3-I)]TLLKG-X2) | 155 |
| CC(=O)/C=C/C1C(C)=CCC(C)C1(C)C (mixture of isomers) [DL-TRANS-.ALPHA.-IRONE] | 34 |
| S=c1ccss1 [1,2-DITHIOLE-3-THIONE] | 98 |
| COc1ccccc1/C=C/C=O [2'-METHOXYCINNAMALDEHYDE] | 122 |
| COc1cccc(OC)c1C(=O)O [2,6-DIMETHOXYBENZOIC ACID] | 24 |
| CC(=O)c1c(O)cccc1O [2-ACETYLRESORCINOL] | 45 |
| O=Cc1cc2ccccc2o1 [2-FORMYLBENZOFURAN] | 154 |
| CNC(=O)Nc1ccc(Cl)c(Cl)c1 [3,4-DCPMU] | 115 |
| COc1cc(C)cc(O)c1 [3-HYDROXY-5-METHOXYTOLUENE] | 50 |
| CCCCc1ccc(O)cc1 [4-BUTYLPHENOL] | 116 |
| CCc1ccc(O)c(OC)c1 [4-ETHYLGUAIACOL] | 116 |
| COc1ccc2[nH]c3c(c2c1)CCN=C3C [6-METHOXYHARMALANE] | 49 |
| CCCCCc1cccc(=O)o1 [6-PENTYL-2H-PYRAN-2-ONE] | 52 |
| COc1ccc2ccc(=O)oc2c1 [7-METHOXYCOUMARIN] | 77 |
| C=C1CC[C@H](O)C/C1=C/C=C1\CCC[C@]2(C)[C@@H]([C@H](C)CCC(O)C(C)(C)O)CC[C@@H]12 (some centres unmarked) [24,25-DIHYDROXYVITAMIN D3] | 78 |
| COc1cc(C2c3cc4c(c(O)c3CC3COC(=O)C32)OCO4)cc(OC)c1O (stereo not drawn) [.ALPHA.-PELTATIN A] | 14 |
| Cc1ccc2c(c1)C(=O)c1ccccc1C2=O [.BETA.-METHYLANTHRAQUINONE] | 26 |
| CC[C@H](C)[C@H]1O[C@]2(C=C[C@@H]1C)C[C@@H]1C[C@@H](C/C=C(\C)[C@@H](O[C@H]3C[C@H](OC)[C@@H](O[C@H]4C[C@H](OC)[C@@H](O)[C@H](C)O4)[C@H](C)O3)[C@@H](C)/C=C/C=C3\CO[C@@H]4[C@H](O)C(C)=C[C@@H](C(=O)O1)[C@]34O)O2 [ABAMECTIN B1A] | 35 |
| C[C@]12CCC(=O)C=C1CC[C@@H]1[C@@H]2C(=O)C[C@]2(C)C(=O)CC[C@@H]12 [ADRENOSTERONE] | 41 |
| CC[C@@]1(O)C[C@H](O[C@H]2C[C@H](N(C)C)[C@H](O)[C@H](C)O2)c2c(cc3c(c2O)C(=O)c2c(O)cccc2C3=O)[C@H]1C(=O)OC [AKLAVINE] | 116 |
| Cc1ccnc(N)c1 [AMINOPICOLINE] | 13 |
